1 compound from ChEMBL document CHEMBL3886475, “Substituted hetero-bicyclic compounds, compositions and medicinal applications thereof” (2016) can be followed below.

The target in this assay is Tyrosine-protein kinase BTK (Homo sapiens, UniProt Q06187). The assay can be described thus: Recombinant Human BTK Inhibition Assay: The inhibition assays were performed using the generic tyrosine kinase assay kit from C is Bio (HTRF KinEASE-TK #62TK0PEB). The assay is based on the principle of fluorescence resonance energy transfer (FRET) between the Europium Cryptate labeled anti-phosphotyrosine antibody and streptavidin labeled fluorophore, XL-665. In an uninhibited kinase reaction the biotinylated peptide substrate (Tk-Biotin) gets phosphorylated at an intermediate tyrosine site which is captured by anti-phosphotyrosine antibody which eventually acts as a FRET donor. The streptavidin labeled XL-665 binds strongly to the Tk-Biotin substrate and act as a FRET acceptor. The resultant FRET signal is measured at 665 nm. A ratio of this specific fluorescence (665 nm) to the background fluorescence (620 nm), conferred by the free antibody, is directly proportional to the kinase activity. Inhibition of the kinase activity by a pharmacological intervention such as a Btk inhibitor of the present disclosure will result into decreased FRET signal. A general note: TR-FRET usually uses a lanthanide donor and a delayed reading to cut background.
Chain of Tyrosine-protein kinase BTK (Q06187 whole entry): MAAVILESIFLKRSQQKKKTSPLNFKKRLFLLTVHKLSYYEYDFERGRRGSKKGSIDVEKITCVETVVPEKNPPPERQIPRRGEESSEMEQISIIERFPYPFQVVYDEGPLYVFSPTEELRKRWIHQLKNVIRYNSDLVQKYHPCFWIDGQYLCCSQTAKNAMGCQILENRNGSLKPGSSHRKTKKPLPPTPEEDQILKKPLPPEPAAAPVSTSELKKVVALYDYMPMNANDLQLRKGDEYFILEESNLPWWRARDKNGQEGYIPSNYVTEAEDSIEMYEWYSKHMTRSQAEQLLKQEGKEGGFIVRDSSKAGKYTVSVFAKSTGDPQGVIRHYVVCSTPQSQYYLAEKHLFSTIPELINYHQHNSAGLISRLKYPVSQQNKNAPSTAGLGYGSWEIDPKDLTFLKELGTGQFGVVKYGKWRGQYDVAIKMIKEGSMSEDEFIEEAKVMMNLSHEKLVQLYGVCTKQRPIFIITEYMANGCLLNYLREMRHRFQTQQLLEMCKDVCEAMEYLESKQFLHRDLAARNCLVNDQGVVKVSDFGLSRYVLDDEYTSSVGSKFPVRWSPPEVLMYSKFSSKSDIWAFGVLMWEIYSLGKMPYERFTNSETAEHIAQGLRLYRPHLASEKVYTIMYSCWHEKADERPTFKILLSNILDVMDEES

As a reminder, the IC50 is the concentration needed to halve the response being measured. As to `CCN1CC(n2cc(-c3cc4c(-c5cccc(N6CCOc7cc(C8CC8)ccc7C6=O)c5CO)ccnc4[nH]3)cn2)C1`, the IC50 came out at 7 nM.
